Laboratory results: article PMC10145651, “Modulation of the 5-Lipoxygenase Pathway by Chalcogen-Containing Inhibitors of Leukotriene A4 Hydrolase” (International Journal of Molecular Sciences, 2023)
Like-named read-outs stand apart in the source and are kept apart here.

Legend:
LTA4H [1] = target: T1, LTA4H (Homo sapiens, UniProt P09960); experiment: 5-LOX product formation from intact PMNs: LTB4 (cellular activity of LTA4H); assay type: cell-based; conditions: for inhibition of LTA4H (LTB4 production) in PMNs with exogenous AA: 10 µM inhibitor, 0–20 µM AA
T1 sequence (P09960 1-611): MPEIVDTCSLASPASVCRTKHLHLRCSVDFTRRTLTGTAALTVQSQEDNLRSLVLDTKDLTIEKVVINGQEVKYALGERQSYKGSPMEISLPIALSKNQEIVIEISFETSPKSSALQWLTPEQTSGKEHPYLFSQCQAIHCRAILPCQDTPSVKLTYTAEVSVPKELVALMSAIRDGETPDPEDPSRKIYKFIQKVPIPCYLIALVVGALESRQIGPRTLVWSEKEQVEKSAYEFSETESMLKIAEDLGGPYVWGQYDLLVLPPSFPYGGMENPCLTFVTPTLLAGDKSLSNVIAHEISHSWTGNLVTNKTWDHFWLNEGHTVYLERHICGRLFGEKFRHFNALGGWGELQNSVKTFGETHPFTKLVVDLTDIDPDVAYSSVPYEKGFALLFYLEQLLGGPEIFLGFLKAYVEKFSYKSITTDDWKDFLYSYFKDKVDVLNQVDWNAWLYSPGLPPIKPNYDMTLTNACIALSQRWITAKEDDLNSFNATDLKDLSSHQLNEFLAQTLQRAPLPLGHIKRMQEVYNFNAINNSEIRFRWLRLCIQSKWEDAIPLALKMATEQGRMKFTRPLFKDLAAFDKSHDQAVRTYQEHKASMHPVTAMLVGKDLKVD
Method: Human primary leukocytes were isolated from peripheral blood of healthy adult volunteers provided by the Institute of Transfusion Medicine at the University Hospital Greifswald as described before. All methods were performed in accordance with the Declaration of Helsinki. In brief, erythrocytes were removed by dextran sedimentation and leukocytes were separated by the density gradient centrifugation on a lymphocyte separation medium (Histopaque®-1077, Merck, Darmstadt, Germany). The remaining erythrocytes were removed by hypotonic lysis using water, and resulting polymorphonuclear neutrophils (PMNs) were resuspended in PBS containing 0.1% (w/v) glucose (PG buffer) or PG buffer with 1 mM CaCl2 (PGC buffer) as indicated. Resulting peripheral blood mononuclear cells (PBMC), including monocytes, were seeded in the RPMI 1640 medium supplemented with 10% (v/v) FCS, 100 U/mL penicillin, 100 µg/mL streptomycin and 2 mM L-glutamine in cell culture flasks (Greiner Bio-one, Frickenhausen, Germany) for 1.5 h at 37 °C and 5% CO2. Adherent monocytes were washed twice with PBS and were finally resuspended in the RPMI 1640 medium as described before.
PMNs (5 × 10^6 cells/mL) were diluted in PGC buffer and pre-incubated with the vehicle (0.1%; v/v) or compounds for 10 min at 37 °C prior to the stimulation with 2.5 µM A23187. After 10 min at 37 °C, treatments were stopped on ice with an equal volume of ice-cold methanol. Next, 530 µL acidified PBS containing 200 ng PGB1 as an internal standard were added to the sample followed by the solid phase extraction with on a RP18 column. […] Formed 5-LOX metabolites were analyzed as described previously.

[2] = system: peripheral blood-derived monocytes; experiment: MTT cytotoxicity assay with monocytes; assay type: cell-based, human; conditions: lower concentrations (less than 30 µM); MTT and LDH assays, Figure S3
Method: Human primary leukocytes were isolated from peripheral blood of healthy adult volunteers provided by the Institute of Transfusion Medicine at the University Hospital Greifswald as described before. All methods were performed in accordance with the Declaration of Helsinki. […] The remaining erythrocytes were removed by hypotonic lysis using water, and resulting polymorphonuclear neutrophils (PMNs) were resuspended in PBS containing 0.1% (w/v) glucose (PG buffer) or PG buffer with 1 mM CaCl2 (PGC buffer) as indicated.
Then, cells were incubated with 5 mg/mL MTT in PBS until the blue staining of the vehicle-containing control cells. Formazan formation was stopped by 100 µL of 10% (w/v in 20 mM HCl) SDS lysis buffer and followed by shaking overnight. Finally, absorbance was measured at 570 nm with a SpectraMax® i3x multi-mode detection platform (Molecular Devices, San Jose, CA, USA). The pan-protein kinase inhibitor staurosporine (1 µM) was used as a cytotoxic control inhibitor.

LTA4H [3] = target: T1, LTA4H; experiment: Epoxide hydrolase inhibition assay with recombinant LTA4H (LTA4 to LTB4); assay type: biochemical; parameters: made in house; host or cells: Escherichia coli JM101; conditions: epoxide hydrolase activity, 10-40 μM LTA4, competitive inhibition model
Excerpt: Human recombinant LTA4H was expressed in Escherichia coli JM101 strain and purified as described previously. In short, supernatant of lysed cells was loaded on a nickel affinity column followed by the purification steps with the Mono Q 5/50 and Superdex HiLoad 16/600 columns (Cytiva, Uppsala, Sweden). Protein purity was checked by sodium dodecyl-sulfate polyacrylamide gel electrophoresis (SDS-PAGE)(XCell SureLock Mini-Cell Electrophoresis System and PowerEase 300W Power Supply) with a NuPAGE Bis-Tris 4–12% gels (Invitrogen, Waltham, MA, USA) after every purification step.
Purified LTA4H (3 μg) was pre-incubated with 0–50 μM inhibitors on ice for 3 min and the epoxide hydrolase reaction was carried out with 10 μM, 20 μM or 40 μM LTA4 for 15 s in 100 μL 25 mM Tris-HCl pH 7.8 at room temperature. The incubation was stopped by addition of 2 vol of methanol, containing 300 pmol PGB2 (ε ~ 26,000 M^−1 cm^−1; λmax = 280 nm) as an internal standard, and followed by 1 vol of distilled water. […] The formation of LTB4 (ε ~ 50,000 M^−1 cm^−1) was determined at 270 nm. The Ki value for each inhibitor was calculated using the competitive inhibition model in the GraphPad Prism 9 program.

[4] = A23187-activated intact PMNs, LTB4 formation, read-out: IC50 on the activity of LTA4H (LTB4) in PMNs

Row | inhibition of LTA4H (LTB4 production) in PMNs with exogenous AA (LTA4H [1]) | IC50 (LTA4H [1]; [4]) [nM] | Ki (LTA4H [3]) [nM] | SMILES | safety in human leukocytes (cytotoxicity assays) [2] | IC50 (LTA4H [1]) [nM]
1 | almost complete | 600 | 1500 | Nc1nc(-c2ccc(Cc3ccccc3)cc2)cs1 [ARM1, 4-(4-benzylphenyl) thiazol-2-amine, reference compound] | safe | 
2 | higher production of LTB4 | 800 | 3800 | Nc1nc(-c2ccc(Cc3ccccc3)cc2)co1 [TTO, 4-(4-benzylphenyl) oxazol-2-amine] | safe | 

Row | SMILES | inhibition of LTA4H (LTB4 production) in PMNs with exogenous AA (LTA4H [1]) | IC50 (LTA4H [1]; [4]) [nM] | Ki (LTA4H [3]) [nM] | safety in human leukocytes (cytotoxicity assays) [2] | IC50 (LTA4H [1]) [nM]
3 | Nc1nc(-c2ccc(Cc3ccccc3)cc2)c[se]1 [TTSe, 4-(4-benzylphenyl) selenazol-2-amine] | almost complete |  | 4800 | safe | 800
